From ChEMBL document CHEMBL1201862, “PubChem BioAssay data set” (2004)
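A five-concentration, 48-hour dose response in 96-well plates underlies each endpoint, interpolated linearly between surrounding concentrations. Here, GI50 denotes the concentration required for 50% inhibition of growth.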 The source made the active and inactive calls. No stated cut-off is given here; in the data, active = GI50 up to about 1.1 µM and inactive = higher.

Assays:
Assay in all cases: DTP human tumour cell line panel, 48 h
SK-MEL-2 = test system: SK-MEL-2
MOLT-4 = test system: MOLT-4
NCI-H226 = test system: NCI-H226
RXF 393 = test system: RXF 393
MCF7 = test system: MCF7
DU-145 = test system: DU-145
HCC 2998 = test system: HCC 2998
A549 = test system: A549
SNB-19 = test system: SNB-19
ACHN = test system: ACHN
HL-60 = test system: HL-60
OVCAR-4 = test system: OVCAR-4
OVCAR-8 = test system: OVCAR-8
OVCAR-5 = test system: OVCAR-5
M14 = test system: M14
SK-MEL-5 = test system: SK-MEL-5
HT-29 = test system: HT-29
SR = test system: SR
LOX IMVI = test system: LOX IMVI
SF-539 = test system: SF-539

| SMILES | GI50 (SK-MEL-2) | GI50 (MOLT-4) | GI50 (NCI-H226) | GI50 (RXF 393) | GI50 (MCF7) | GI50 (DU-145) | GI50 (HCC 2998) | GI50 (A549) | GI50 (SNB-19) | GI50 (ACHN) | GI50 (HL-60) | GI50 (OVCAR-4) | GI50 (OVCAR-8) | GI50 (OVCAR-5) | GI50 (M14) | GI50 (SK-MEL-5) | GI50 (HT-29) | GI50 (SR) | GI50 (LOX IMVI) | GI50 (SF-539) |
| --- | --- | --- | --- | --- | --- | --- | --- | --- | --- | --- | --- | --- | --- | --- | --- | --- | --- | --- | --- | --- |
| CC(C)(C)c1ccc(-c2nnc(SCc3ccc(Cl)cc3)n2-c2cccc(C(F)(F)F)c2)cc1 | 16.8 µM (inactive) | 3.78 µM (inactive) | 19.7 µM (inactive) | 8.91 µM (inactive) | 5.65 µM (inactive) | > 85.3 µM (inactive) | 11.2 µM (inactive) | 7.64 µM (inactive) | 36.1 µM (inactive) | 20.3 µM (inactive) | 0.0867 µM (active) | 7.8 µM (inactive) | 15.6 µM (inactive) | 32.8 µM (inactive) | 15 µM (inactive) | 14 µM (inactive) | 5.47 µM (inactive) | 5.82 µM (inactive) | 31.3 µM (inactive) | 54.8 µM (inactive) |
| CC1(C)CN=C(Nc2ccc(F)c(Cl)c2)S1 | > 100 µM (inactive) | > 100 µM (inactive) | > 100 µM (inactive) | > 100 µM (inactive) | > 100 µM (inactive) | > 100 µM (inactive) | > 100 µM (inactive) | > 100 µM (inactive) | > 100 µM (inactive) | > 100 µM (inactive) | > 100 µM (inactive) | > 100 µM (inactive) | > 100 µM (inactive) | > 100 µM (inactive) | > 100 µM (inactive) | > 100 µM (inactive) | > 100 µM (inactive) | > 100 µM (inactive) | > 100 µM (inactive) | > 100 µM (inactive) |
| C=CC(O)C#Cc1cnc(OC)nc1OC (centres undefined) | > 100 µM (inactive) | 32.6 µM (inactive) | 30.1 µM (inactive) | > 100 µM (inactive) | 14.5 µM (inactive) | > 100 µM (inactive) | > 100 µM (inactive) | > 100 µM (inactive) | > 100 µM (inactive) | > 100 µM (inactive) | 17.2 µM (inactive) | > 100 µM (inactive) | > 100 µM (inactive) | > 100 µM (inactive) | > 100 µM (inactive) | > 100 µM (inactive) | > 100 µM (inactive) | > 100 µM (inactive) | > 100 µM (inactive) | > 100 µM (inactive) |
| CCOC(=O)C1(C#N)OC(=O)c2cnccc21 (centres undefined) | > 100 µM (inactive) | > 100 µM (inactive) | > 100 µM (inactive) | > 100 µM (inactive) | > 100 µM (inactive) | > 100 µM (inactive) | > 100 µM (inactive) | > 100 µM (inactive) | > 100 µM (inactive) | 58.6 µM (inactive) | > 100 µM (inactive) | > 100 µM (inactive) | > 100 µM (inactive) | > 100 µM (inactive) | > 100 µM (inactive) | – | > 100 µM (inactive) | > 100 µM (inactive) | > 100 µM (inactive) | > 100 µM (inactive) |
| O=[N+]([O-])c1ccc(O)c(/C=N/NC(=S)N2CCCCC2)c1 | 11.3 µM (inactive) | 1.34 µM (inactive) | 1.55 µM (inactive) | 6.05 µM (inactive) | 4.55 µM (inactive) | 3.83 µM (inactive) | 7.73 µM (inactive) | 9.25 µM (inactive) | 4.69 µM (inactive) | 1.84 µM (inactive) | 0.282 µM (active) | 6.24 µM (inactive) | 1.8 µM (inactive) | 16 µM (inactive) | 3.81 µM (inactive) | 3.7 µM (inactive) | 2.33 µM (inactive) | 2.43 µM (inactive) | 1.57 µM (inactive) | 6.82 µM (inactive) |
| CCOc1ccc(C2c3[nH]c4ccccc4c3CCN2C(=O)c2cccs2)cc1 (centres undefined) | 78.3 µM (inactive) | 2.65 µM (inactive) | 3.06 µM (inactive) | 7.18 µM (inactive) | 7.6 µM (inactive) | 68.9 µM (inactive) | 2.08 µM (inactive) | 7.03 µM (inactive) | 23.8 µM (inactive) | 44.5 µM (inactive) | 9.04 µM (inactive) | 4.22 µM (inactive) | 36.4 µM (inactive) | > 100 µM (inactive) | 37.7 µM (inactive) | 5.75 µM (inactive) | 5.98 µM (inactive) | 2.62 µM (inactive) | 6.52 µM (inactive) | 3.51 µM (inactive) |
| CC(=O)OCC1OC(n2c3c(cc(C#N)c2=S)CCC3)C(OC(C)=O)C(OC(C)=O)C1OC(C)=O (centres undefined) | > 100 µM (inactive) | 33.9 µM (inactive) | > 100 µM (inactive) | > 100 µM (inactive) | > 100 µM (inactive) | > 100 µM (inactive) | > 100 µM (inactive) | > 100 µM (inactive) | > 100 µM (inactive) | > 100 µM (inactive) | > 100 µM (inactive) | > 100 µM (inactive) | > 100 µM (inactive) | > 100 µM (inactive) | > 100 µM (inactive) | > 100 µM (inactive) | > 100 µM (inactive) | 68.4 µM (inactive) | > 100 µM (inactive) | > 100 µM (inactive) |
